Paper PMC12177781, “Chalcogen Derivatives for the Treatment of African Trypanosomiasis: Biological Evaluation of Thio- and Seleno-Semicarbazones and Their Azole Derivatives” (ACS Omega, 2025)
Values joined by “and” are separate entries in the source; they are usually repeats but may differ in a detail not shown here. Equal entries are not always repeated.

Tests used:
[1] = target: T. brucei cathepsin L-like protease (TbrCATL) (Trypanosoma brucei rhodesiense, UniProt Q95PM0); assay: TbrCATL inhibition assay, Z-FR-AMC substrate; type: biochemical; details: for SI TbrCATL: IC50 hCatL/IC50 TbrCATL
Procedure: (§1) All experiments were performed in a 384-well black microplate, using a Synergy HTX (Biotek) plate reader at 25 °C with absorption/emission wavelengths of 360/460 nm. Assays were performed in triplicate wells and DMSO was used as a vehicle control. Enzyme activity was measured and normalized to DMSO controls, and the inhibitor E-64 (10 μM) was used as a positive control for all assays. Experiments were performed in triplicate, with at least two independent assays (n = 6 data points). IC50 values were determined through nonlinear regression. The data obtained were analyzed using GraphPad Prism 9.0 (GraphPad Software, La Jolla, California, US).
The screening assay was performed using 0.5 nM of TbrCATL diluted in 0.1 M sodium acetate, 1 mM dithiothreitol (DTT), and 0.01% Triton X-100, pH 5.5. TbrCATL was expressed and purified as described. Enzyme the compound (10 μM), were incubated for 10 min at room temperature. Then the substrate, Z-Phe-Arg-amidomethylcoumarin (Z-FR-AMC; Sigma-Aldrich, C9521), was added (30 μL diluted in the same assay buffer) to yield a final concentration of 2.5 μM and the assay allowed to proceed for 10 min. […] For those compounds inhibiting enzyme activity by >85%, DR assays were performed over 15 2-fold serial dilutions starting at 0.5 or 20 μM.

T. cruzi CAI/72 = details: cited from earlier work
HepG2 cells [2] = assay: HepG2 cytotoxicity, CellTiter-Glo, 48 h; details: Homo sapiens, HepG2, read-out: HepG2 inhibition (%)
C2C12 cells = details: read-out: Toxicity CC50 C2C12 cells; cited from earlier work
HEK293 cells [3] = details: human
cruzain (Cz) = details: cited from earlier work
HepG2 cells [4] = details: human
in vitro [5] = details: human, CC50 HEK293 (μM)
in vitro [6] = details: human, CC50 HepG2 (μM)
[7] = DPPH radical scavenging (antioxidant) assay; details: after 2 h, mean ± SEM
HEK293 cells [8] = assay: HEK293 cytotoxicity, CellTiter-Glo, 48 h; details: Homo sapiens, HEK293, read-out: HEK293 inhibition (%)
[9] = system: T. brucei brucei Lister 427; assay: T. b. brucei Lister 427 bloodstream-form growth inhibition, SYBR Green viability assay, 72 h; type: cell-based, Trypanosoma brucei brucei; details: for T. brucei inhibition (%): growth inhibition at 10 µM, ± SD
[10] = target: T1, human cathepsin L (hCatL) (Homo sapiens, UniProt P07711); assay: hCatL inhibition assay, Z-FR-AMC substrate; type: biochemical; details: mean ± SD, two experiments in triplicate (n = 6)
T1 construct: purchased R&D Systems 952-CY
Procedure: as §1
Recombinant hCatL was purchased from R&D Systems (952-CY) and activated according to the manufacturers protocol. This enzyme, hCatL, is used to test compounds’ selectivity because it is the human homologue of TbrCATL. The assay was modified from, using 25 pM of the enzyme diluted in 40 mM sodium acetate, 5 mM DTT, 100 mM NaCl, 1 mM EDTA and 0.01% Triton X-100, pH 5.5. Enzyme and compound (10 μM), were incubated for 30 min at room temperature. Then Z-FR-AMC was added (30 μL diluted in the same assay buffer) to yield a final concentration of 25 μM and the assay allowed to proceed for 10 min. DR assays were performed over 15 2-fold serial dilutions starting at 0.5 or 20 μM.

TbrCATL = details: cited from earlier work
hCatL = details: E-64, from ref. (number not given); cited from earlier work

T. brucei cathepsin L-like protease (TbrCATL), sequence (Q95PM0 1-450): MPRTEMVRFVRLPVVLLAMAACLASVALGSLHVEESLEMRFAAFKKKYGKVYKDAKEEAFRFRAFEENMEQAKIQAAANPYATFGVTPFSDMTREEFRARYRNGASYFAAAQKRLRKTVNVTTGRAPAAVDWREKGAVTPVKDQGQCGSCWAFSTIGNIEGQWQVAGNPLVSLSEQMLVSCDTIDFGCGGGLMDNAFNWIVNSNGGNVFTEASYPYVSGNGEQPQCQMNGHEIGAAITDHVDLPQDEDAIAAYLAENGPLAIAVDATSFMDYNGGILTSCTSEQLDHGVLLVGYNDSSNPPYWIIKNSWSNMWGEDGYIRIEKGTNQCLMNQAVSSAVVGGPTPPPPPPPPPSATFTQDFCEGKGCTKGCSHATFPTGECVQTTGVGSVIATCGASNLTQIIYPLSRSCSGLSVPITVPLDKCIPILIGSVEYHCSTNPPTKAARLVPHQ
T1 sequence (P07711 114-333): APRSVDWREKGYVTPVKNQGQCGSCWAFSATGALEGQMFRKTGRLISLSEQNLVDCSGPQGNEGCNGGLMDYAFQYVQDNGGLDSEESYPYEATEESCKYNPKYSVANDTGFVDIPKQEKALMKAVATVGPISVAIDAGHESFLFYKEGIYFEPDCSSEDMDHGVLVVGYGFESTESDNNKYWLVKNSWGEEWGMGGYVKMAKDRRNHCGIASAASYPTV

In the case of `C/C(=N\NC(N)=[Se])c1ccc(Br)cc1` [SeO3], the IC50 ([1]; IC50 TbrCATL (nM), mean ± SD, two experiments in triplicate (n = 6)) is reported as 9.87 nM and 1.22 nM, the “SI TbrCATL” value [1] is reported as 8 and the “TbrCATL inhibition (%)” value ([1]; at 10 μM) is reported as 99.15%. For the same compound, the inhibition at 10 µM ([1]; read-out: TbrCATL inhibition (%), at 10 μM) was greater than 85%, the EC50 (T. cruzi CAI/72) was 770 ± 170 nM and the inhibition at 10 µM (HepG2 cells [2]) was 71 ± 15%. For the same compound, the CC50 (C2C12 cells) was greater than 10000 nM, the CC50 (HEK293 cells [3]) was 2820 ± 110 nM and the IC50 (cruzain (Cz)) was 14.3 ± 3.57 nM. The CC50 (HepG2 cells [4]) was 2700 ± 160 nM, the CC50 (in vitro [5]) was 2.7 µM and the CC50 (in vitro [6]) was 2.82 µM. The “% inhibited DPPH” value ([7]; 0.015 mg/ml) was 23.00 ± 13.43%, the “% inhibited DPPH” value ([7]; 0.03 mg/ml) was 75.00 ± 2.65% and the “% inhibited DPPH” value ([7]; 0.06 mg/ml) was 77.67 ± 1.45%. For the same compound, the inhibition at 10 µM (HEK293 cells [8]) was 100%, the EC50 ([9]; Trypanosoma brucei, three independent experiments in duplicate (n = 6) ± SD, read-out: EC50 T. brucei) was 470 ± 20 nM and the “T. brucei inhibition (%)” value ([9]; 10 µM) was 100 ± 2%. For the same compound, the “T. brucei inhibition (%)” value ([9]; listed as Se O3, 10 µM) was greater than 70% and the IC50 [10] was 9.87 ± 0.63 nM.

For `CC(C)C[C@H](NC(=O)[C@H]1O[C@@H]1C(=O)O)C(=O)NCCCCN=C(N)N` [Compound E-64, E-64], the “SI TbrCATL” value [1] is given as 10, the IC50 (TbrCATL) is given as 3.1 nM and the IC50 (hCatL) is given as 30 ± 4 nM.
